In US20160333419A1, “GENE SIGNATURES ASSOCIATED WITH SENSITIVITY TO MDM2 INHIBITORS” (DAIICHI SANKYO COMPANY, LIMITED, priority 2014, published 2016):

Assays:
Test in all cases: OncoPanel cytotoxicity assay
Assay type in all cases: cell-based
769-P = conditions: Homo sapiens, 72 hour incubation
In short: (§1)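 Cells grown in RPMI 1640 with 10% FBS (or a special medium) at 37° C, 5% CO2 were treated 24 hours after seeding for 72 hours with 10 concentrations (3.16-fold dilutions, 0.1% DMSO final). Nuclei were dye-stained and imaged; IC50 was fit from percent of control relative cell count.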

A549 = conditions: Homo sapiens, 72 hour incubation
In short: as §1

ACHN = conditions: Homo sapiens, 72 hour incubation
In short: as §1

ARH-77 = conditions: Homo sapiens, 72 hour incubation
In short: as §1

BC-1 = conditions: Homo sapiens, BC1, 72 hour incubation
In short: as §1

CAMA-1 = conditions: Homo sapiens, 72 hour incubation
In short: as §1

CHP-212 = conditions: Homo sapiens, 72 hour incubation
In short: as §1

Cal 27 = conditions: Homo sapiens, 72 hour incubation
In short: as §1

ChaGoK1 = conditions: Homo sapiens, ChaGo-K-1, 72 hour incubation
In short: as §1

Detroit 562 = conditions: Homo sapiens, 72 hour incubation
In short: as §1

EB-3 = conditions: Homo sapiens, 72 hour incubation
In short: as §1

FaDu = conditions: Homo sapiens, 72 hour incubation
In short: as §1

G-402 = conditions: Homo sapiens, 72 hour incubation
In short: as §1

HEC-1-A = conditions: Homo sapiens, 72 hour incubation
In short: as §1

HS 746T = conditions: Homo sapiens, Hs746T, 72 hour incubation
In short: as §1

Hs 578T = conditions: Homo sapiens, 72 hour incubation
In short: as §1

Hs 766T = conditions: Homo sapiens, Hs766T, 72 hour incubation
In short: as §1

JAR = conditions: Homo sapiens, 72 hour incubation
In short: as §1

KATO III = conditions: Homo sapiens, 72 hour incubation
In short: as §1

LNCaP = conditions: Homo sapiens, 72 hour incubation
In short: as §1

MCF7 = conditions: Homo sapiens, 72 hour incubation
In short: as §1

MDA-MB-436 = conditions: Homo sapiens, 72 hour incubation
In short: as §1

MEG01 = conditions: Homo sapiens, MEG-01, 72 hour incubation
In short: as §1

NCI-H295R = conditions: Homo sapiens, 72 hour incubation
In short: as §1

NCI-H747 = conditions: Homo sapiens, 72 hour incubation
In short: as §1

RPMI 8226 = conditions: Homo sapiens, 72 hour incubation
In short: as §1

Raji = conditions: Homo sapiens, 72 hour incubation
In short: as §1

SCC-4 = conditions: Homo sapiens, 72 hour incubation
In short: as §1

SU.86.86 = conditions: Homo sapiens, 72 hour incubation
In short: as §1

SW1353 = conditions: Homo sapiens, 72 hour incubation
In short: as §1

SW620 = conditions: Homo sapiens, SW-620, 72 hour incubation
In short: as §1

SW837 = conditions: Homo sapiens, 72 hour incubation
In short: as §1

SW900 = conditions: Homo sapiens, 72 hour incubation
In short: as §1

SW948 = conditions: Homo sapiens, 72 hour incubation
In short: as §1

SaOS2 = conditions: Homo sapiens, SAOS-2, 72 hour incubation
In short: as §1

SiHa = conditions: Homo sapiens, 72 hour incubation
In short: as §1

Wi38 = conditions: Homo sapiens, WI-38, 72 hour incubation
In short: as §1

YAPC = conditions: Homo sapiens, 72 hour incubation
In short: as §1

| SMILES | IC50 (769-P) | IC50 (A549) | IC50 (ACHN) | IC50 (ARH-77) | IC50 (BC-1) | IC50 (CAMA-1) | IC50 (CHP-212) | IC50 (Cal 27) | IC50 (ChaGoK1) | IC50 (Detroit 562) | IC50 (EB-3) | IC50 (FaDu) | IC50 (G-402) | IC50 (HEC-1-A) | IC50 (HS 746T) | IC50 (Hs 578T) | IC50 (Hs 766T) | IC50 (JAR) | IC50 (KATO III) | IC50 (LNCaP) | further results |
| --- | --- | --- | --- | --- | --- | --- | --- | --- | --- | --- | --- | --- | --- | --- | --- | --- | --- | --- | --- | --- | --- |
| CC[C@@H]1CNC2(CC2)CN1C(=O)[C@@H]1C[C@@H](F)CN1C(=O)C1=C(C(C)C)N2C(=N[C@@](C)(c3ccc(Cl)nc3)[C@H]2c2ccc(Cl)c(F)c2)S1 [Compound A, [(5R,6S)-5-(4-Chloro-3-fluorophenyl)-6-(6-chloropyridin-3-yl)-6-methyl-3-(propan-2-yl)-5,6-dihydroimidazo[2,1-b][1,3]thiazol-2-yl][(2S,4R)-2-{[(6R)-6-ethyl-4,7-diazaspiro[2.5]oct-7-yl]carbonyl}-4-fluoropyrrolidin-1-yl]methanone] | 0.442 µM | 0.401 µM | 1.07 µM | > 40 µM | 0.464 µM | > 40 µM | 0.196 µM | > 40 µM | > 40 µM | > 40 µM | > 40 µM | > 40 µM | 0.568 µM | > 40 µM | 38.9 µM | > 40 µM | > 40 µM | 0.549 µM | 36.6 µM | 0.27 µM | IC50 (MCF7): 0.661 µM; IC50 (MDA-MB-436): > 40 µM; IC50 (MEG01): > 40 µM; IC50 (NCI-H295R): > 40 µM; IC50 (NCI-H747): > 40 µM; IC50 (RPMI 8226): > 40 µM; IC50 (Raji): 13.8 µM; IC50 (SCC-4): > 40 µM; IC50 (SU.86.86): > 40 µM; IC50 (SW1353): 1.68 µM; IC50 (SW620): > 40 µM; IC50 (SW837): > 40 µM; IC50 (SW900): > 40 µM; IC50 (SW948): > 40 µM; IC50 (SaOS2): > 40 µM; IC50 (SiHa): > 40 µM; IC50 (Wi38): 0.171 µM; IC50 (YAPC): > 40 µM |
| CC1(C)CCC2(CC1)N[C@@H](C(=O)N[C@@H]1CC[C@@H](C(N)=O)OC1)[C@H](c1ccnc(Cl)c1F)[C@]21C(=O)Nc2cc(Cl)ccc21 [Compound B, (3′R,4′S,5′R)—N-[(3R,6S)-6-carbamoyltetrahydro-2H-pyran-3-yl]-6″-chloro-4′-(2-chloro-3-fluoropyridin-4-yl)-4,4-dimethyl-2″-oxo-1″,2″-dihydrodispiro[cyclohexane-1,2′-pyrrolidine-3′,3″-indole]-5′-carboxamide] | 0.036 µM | 0.0769 µM | 0.174 µM | 7.61 µM | 0.074 µM | > 10 µM | 0.0294 µM | > 10 µM | > 10 µM | 7.74 µM | > 10 µM | > 10 µM | 0.0261 µM | > 10 µM | 5.85 µM | > 10 µM | > 10 µM | 0.0861 µM | > 10 µM | 0.064 µM | IC50 (MCF7): 0.0833 µM; IC50 (MDA-MB-436): > 10 µM; IC50 (MEG01): 9.7 µM; IC50 (NCI-H295R): > 10 µM; IC50 (NCI-H747): > 10 µM; IC50 (RPMI 8226): 0.065 µM; IC50 (Raji): 5.32 µM; IC50 (SCC-4): > 10 µM; IC50 (SU.86.86): 8.86 µM; IC50 (SW1353): 0.0853 µM; IC50 (SW620): 7.12 µM; IC50 (SW837): > 10 µM; IC50 (SW900): > 10 µM; IC50 (SW948): > 10 µM; IC50 (SaOS2): > 10 µM; IC50 (SiHa): > 10 µM; IC50 (Wi38): 0.0379 µM; IC50 (YAPC): > 10 µM |
